Test results as given in the supplement of paper PMC9337992.
± gives the standard deviation of the averaged measurements.

Legend:
Test in all cases: cell confluence relative to DMSO control; higher = less growth inhibition
Conditions in all cases: 5 d
MDA-MB436 = tested on: MDA-MB436
Method: (§1)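 MS023 dose-response (9 concentrations, 40 nM to 10 uM) across TNBC cell lines. Cell confluence was monitored by IncuCyte live-cell imaging for 5 d and normalised to DMSO; n = 4 replicates.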

CAL120 = tested on: CAL120
Method: as §1

MDA-MB-157 = tested on: MDA-MB-157
Method: as §1

SUM159 = tested on: SUM159
Method: as §1

HCC1143 = tested on: HCC1143
Method: as §1

MDAMB231 = tested on: MDAMB231
Method: as §1

Hs578T = tested on: Hs578T
Method: as §1

HCC3153 = tested on: HCC3153
Method: as §1

MX1 = tested on: MX1
Method: as §1

SUM149 = tested on: SUM149
Method: as §1

MDA-MB468 = tested on: MDA-MB468
Method: as §1

HCC70 = tested on: HCC70
Method: as §1

CAL85-1 = tested on: CAL85-1
Method: as §1

BT549 = tested on: BT549
Method: as §1

HCC38 = tested on: HCC38
Method: as §1

HCC1395 = tested on: HCC1395
Method: as §1

BT20 = tested on: BT20
Method: as §1

HCC1806 = tested on: HCC1806
Method: as §1

[1] = log10 MS023 concentration (log10 uM): 0.09691
[2] = log10 MS023 concentration (log10 uM): 0.39794
[3] = log10 MS023 concentration (log10 uM): 0.69897
[4] = log10 MS023 concentration (log10 uM): 1
[5] = log10 MS023 concentration (log10 uM): -0.20412
[6] = log10 MS023 concentration (log10 uM): -0.50515
[7] = log10 MS023 concentration (log10 uM): -0.80618
[8] = log10 MS023 concentration (log10 uM): -1.10721
[9] = log10 MS023 concentration (log10 uM): -1.40824

Structure (SMILES): CC(C)Oc1ccc(-c2c[nH]cc2CN(C)CCN)cc1 [MS023]
- cell confluence (MDA-MB436; [1]): 70.9 ± 13%
- cell confluence (MDA-MB436; [2]): 33.6 ± 5.4%
- cell confluence (MDA-MB436; [3]): 24.4 ± 2.2%
- cell confluence (MDA-MB436; [4]): 22.9 ± 3.1%
- cell confluence (MDA-MB436; [5]): 78.1 ± 3.8%
- cell confluence (MDA-MB436; [6]): 82.9 ± 8.3%
- cell confluence (MDA-MB436; [7]): 97.9 ± 8.7%
- cell confluence (MDA-MB436; [8]): 96.2 ± 11%
- cell confluence (MDA-MB436; [9]): 100 ± 2.5%
- cell confluence (CAL120; [1]): 100.06 ± 0.081%
- cell confluence (CAL120; [2]): 100.1 ± 0.14%
- cell confluence (CAL120; [3]): 100 ± 0.21%
- cell confluence (CAL120; [4]): 99.59 ± 0.47%
- cell confluence (CAL120; [5]): 100.2 ± 0.23%
- cell confluence (CAL120; [6]): 99.99 ± 0.22%
- cell confluence (CAL120; [7]): 100.2 ± 0.18%
- cell confluence (CAL120; [8]): 100 ± 0.26%
- cell confluence (CAL120; [9]): 100.1 ± 0.12%
- cell confluence (MDA-MB-157; [1]): 93.1 ± 6.2%
- cell confluence (MDA-MB-157; [2]): 93.3 ± 8.1%
- cell confluence (MDA-MB-157; [3]): 88.9 ± 7%
- cell confluence (MDA-MB-157; [4]): 81.4 ± 8.7%
- cell confluence (MDA-MB-157; [5]): 95.6 ± 11%
- cell confluence (MDA-MB-157; [6]): 101 ± 8.3%
- cell confluence (MDA-MB-157; [7]): 99.7 ± 1.9%
- cell confluence (MDA-MB-157; [8]): 100 ± 6%
- cell confluence (MDA-MB-157; [9]): 98.2 ± 3.8%
- cell confluence (SUM159; [1]): 93 ± 9%
- cell confluence (SUM159; [2]): 49.6 ± 14%
- cell confluence (SUM159; [3]): 25.1 ± 6.7%
- cell confluence (SUM159; [4]): 26.3 ± 8.2%
- cell confluence (SUM159; [5]): 98.2 ± 1.8%
- cell confluence (SUM159; [6]): 99.11 ± 0.49%
- cell confluence (SUM159; [7]): 99.03 ± 0.93%
- cell confluence (SUM159; [8]): 99.4 ± 1%
- cell confluence (SUM159; [9]): 98.1 ± 3%
- cell confluence (HCC1143; [1]): 84.3 ± 6.3%
- cell confluence (HCC1143; [2]): 52.5 ± 5.2%
- cell confluence (HCC1143; [3]): 26 ± 5.3%
- cell confluence (HCC1143; [4]): 21.1 ± 2.3%
- cell confluence (HCC1143; [5]): 82.8 ± 10%
- cell confluence (HCC1143; [6]): 89.9 ± 9.1%
- cell confluence (HCC1143; [7]): 96.6 ± 2.6%
- cell confluence (HCC1143; [8]): 100 ± 1.2%
- cell confluence (HCC1143; [9]): 98.5 ± 2.5%
- cell confluence (MDAMB231; [1]): 96.77 ± 0.61%
- cell confluence (MDAMB231; [2]): 88.2 ± 3.7%
- cell confluence (MDAMB231; [3]): 71 ± 3.9%
- cell confluence (MDAMB231; [4]): 61.1 ± 3.6%
- cell confluence (MDAMB231; [5]): 99.56 ± 0.35%
- cell confluence (MDAMB231; [6]): 99.8 ± 0.07%
- cell confluence (MDAMB231; [7]): 99.9 ± 0.1%
- cell confluence (MDAMB231; [8]): 99.943 ± 0.053%
- cell confluence (MDAMB231; [9]): 99.978 ± 0.014%
- cell confluence (Hs578T; [1]): 99.47 ± 0.24%
- cell confluence (Hs578T; [2]): 97.79 ± 0.78%
- cell confluence (Hs578T; [3]): 89.9 ± 1.9%
- cell confluence (Hs578T; [4]): 79.6 ± 7.6%
- cell confluence (Hs578T; [5]): 99.79 ± 0.14%
- cell confluence (Hs578T; [6]): 99.921 ± 0.051%
- cell confluence (Hs578T; [7]): 99.933 ± 0.042%
- cell confluence (Hs578T; [8]): 99.898 ± 0.054%
- cell confluence (Hs578T; [9]): 99.921 ± 0.051%
- cell confluence (HCC3153; [1]): 95 ± 1.1%
- cell confluence (HCC3153; [2]): 85.4 ± 2.5%
- cell confluence (HCC3153; [3]): 67.3 ± 2.6%
- cell confluence (HCC3153; [4]): 51.9 ± 3.1%
- cell confluence (HCC3153; [5]): 98.1 ± 1.2%
- cell confluence (HCC3153; [6]): 98.44 ± 0.83%
- cell confluence (HCC3153; [7]): 99.3 ± 2.1%
- cell confluence (HCC3153; [8]): 99.5 ± 1.1%
- cell confluence (HCC3153; [9]): 98.93 ± 0.56%
- cell confluence (MX1; [1]): 93.6 ± 1%
- cell confluence (MX1; [2]): 83.1 ± 1.4%
- cell confluence (MX1; [3]): 48.8 ± 3.2%
- cell confluence (MX1; [4]): 33.3 ± 1.8%
- cell confluence (MX1; [5]): 95.8 ± 1.8%
- cell confluence (MX1; [6]): 100 ± 1.4%
- cell confluence (MX1; [7]): 99.8 ± 1.8%
- cell confluence (MX1; [8]): 97.8 ± 3.8%
- cell confluence (MX1; [9]): 98.4 ± 1.6%
- cell confluence (SUM149; [1]): 94.1 ± 6.1%
- cell confluence (SUM149; [2]): 79.9 ± 12%
- cell confluence (SUM149; [3]): 53.5 ± 17%
- cell confluence (SUM149; [4]): 38.4 ± 8.9%
- cell confluence (SUM149; [5]): 99.14 ± 0.98%
- cell confluence (SUM149; [6]): 98.7 ± 2.5%
- cell confluence (SUM149; [7]): 97.9 ± 4.1%
- cell confluence (SUM149; [8]): 99.1 ± 1.7%
- cell confluence (SUM149; [9]): 95.4 ± 7.5%
- cell confluence (MDA-MB468; [1]): 58.7 ± 3.8%
- cell confluence (MDA-MB468; [2]): 35.8 ± 2.1%
- cell confluence (MDA-MB468; [3]): 36.3 ± 3.1%
- cell confluence (MDA-MB468; [4]): 25.3 ± 3.6%
- cell confluence (MDA-MB468; [5]): 79.5 ± 4.7%
- cell confluence (MDA-MB468; [6]): 95.1 ± 4.7%
- cell confluence (MDA-MB468; [7]): 94.8 ± 5.9%
- cell confluence (MDA-MB468; [8]): 96.2 ± 5.2%
- cell confluence (MDA-MB468; [9]): 98.5 ± 7%
- cell confluence (HCC70; [1]): 73.3 ± 10%
- cell confluence (HCC70; [2]): 67.8 ± 7.8%
- cell confluence (HCC70; [3]): 54.4 ± 3.4%
- cell confluence (HCC70; [4]): 39.5 ± 0.84%
- cell confluence (HCC70; [5]): 86 ± 12%
- cell confluence (HCC70; [6]): 80 ± 12%
- cell confluence (HCC70; [7]): 91.3 ± 11%
- cell confluence (HCC70; [8]): 89.3 ± 5.6%
- cell confluence (HCC70; [9]): 96.6 ± 4.4%
- cell confluence (CAL85-1; [1]): 84.2 ± 3.2%
- cell confluence (CAL85-1; [2]): 70.6 ± 3%
- cell confluence (CAL85-1; [3]): 59.1 ± 5.1%
- cell confluence (CAL85-1; [4]): 39.6 ± 1.6%
- cell confluence (CAL85-1; [5]): 95.4 ± 3%
- cell confluence (CAL85-1; [6]): 98.7 ± 1.4%
- cell confluence (CAL85-1; [7]): 99.6 ± 2.4%
- cell confluence (CAL85-1; [8]): 98.1 ± 1.3%
- cell confluence (CAL85-1; [9]): 96 ± 3.2%
- cell confluence (BT549; [1]): 91.8 ± 8.3%
- cell confluence (BT549; [2]): 85.7 ± 7.7%
- cell confluence (BT549; [3]): 61.5 ± 7.5%
- cell confluence (BT549; [4]): 53.4 ± 7.6%
- cell confluence (BT549; [5]): 99.5 ± 3%
- cell confluence (BT549; [6]): 97.3 ± 8%
- cell confluence (BT549; [7]): 103 ± 3.4%
- cell confluence (BT549; [8]): 109 ± 8.2%
- cell confluence (BT549; [9]): 98.8 ± 4.6%
- cell confluence (HCC38; [1]): 95.7 ± 1%
- cell confluence (HCC38; [2]): 86.4 ± 5%
- cell confluence (HCC38; [3]): 76.9 ± 6.4%
- cell confluence (HCC38; [4]): 60.3 ± 8.9%
- cell confluence (HCC38; [5]): 98.1 ± 1.6%
- cell confluence (HCC38; [6]): 99.1 ± 1.1%
- cell confluence (HCC38; [7]): 100 ± 0.42%
- cell confluence (HCC38; [8]): 100.3 ± 0.22%
- cell confluence (HCC38; [9]): 100.1 ± 0.28%
- cell confluence (HCC1395; [1]): 101 ± 8%
- cell confluence (HCC1395; [2]): 92.8 ± 13%
- cell confluence (HCC1395; [3]): 70.3 ± 9.2%
- cell confluence (HCC1395; [4]): 53.3 ± 3.7%
- cell confluence (HCC1395; [5]): 102 ± 9.3%
- cell confluence (HCC1395; [6]): 107 ± 9.3%
- cell confluence (HCC1395; [7]): 107 ± 9%
- cell confluence (HCC1395; [8]): 108 ± 9.3%
- cell confluence (HCC1395; [9]): 108 ± 9.2%
- cell confluence (BT20; [1]): 102 ± 5%
- cell confluence (BT20; [2]): 98.2 ± 8.7%
- cell confluence (BT20; [3]): 99.8 ± 4.7%
- cell confluence (BT20; [4]): 91.7 ± 13%
- cell confluence (BT20; [5]): 100 ± 5.7%
- cell confluence (BT20; [6]): 102 ± 6%
- cell confluence (BT20; [7]): 101 ± 5.1%
- cell confluence (BT20; [8]): 93.8 ± 11%
- cell confluence (BT20; [9]): 96.5 ± 5.5%
- cell confluence (HCC1806; [1]): 94.2 ± 3%
- cell confluence (HCC1806; [2]): 97.4 ± 3.8%
- cell confluence (HCC1806; [3]): 84.6 ± 2.5%
- cell confluence (HCC1806; [4]): 66.6 ± 9.3%
- cell confluence (HCC1806; [5]): 100 ± 1.9%
- cell confluence (HCC1806; [6]): 100 ± 2.4%
- cell confluence (HCC1806; [7]): 100 ± 3.6%
- cell confluence (HCC1806; [8]): 101 ± 2.7%
- cell confluence (HCC1806; [9]): 103 ± 1.8%
